Experimental data from patent US11497740B2, “Use of Jumonji C demethylase inhibitors for the treatment and prevention of chemotherapy resistance and radioresistance in cancer” (THE BOARD OF REGENTS OF THE UNIVERSITY OF TEXAS SYSTEM, priority 2016, dated 2022).

Tests used:
[1] = tested on: immortalized normal human bronchial epithelial cells HBEC3KT and HBEC30KT; experiment: Clonogenic survival with IR, normal bronchial epithelial cells; assay type: cell-based; conditions: IC50 doses of JIB-04, 4 h prior to radiation
Procedure: Cells were serially diluted to appropriate concentrations and plated into 60-mm dish in triplicate for 4 h. Then cells were treated with the indicated drugs, and irradiated 4 hours later with graded doses of radiation for concurrent treatment or irradiated and 4 hours later the drugs added for post-treatment. All cells were irradiated at room temperature in ambient air using a 137Cs source (Mark 1-68 irradiator, JL Shepherd & Associated). Surviving colonies were stained with crystal violet approximately 10 to 14 days later and colonies formed with more than 50 cells were counted. Clonogenic fraction of irradiated cells was normalized to the plating efficiency of unirradiated controls. The data are presented as the mean±SD. The curve S=e^−(αD+βD2) was fitted to the experimental data using a least square fit algorithm using the program Sigma Plot 11.0 (Systat Software, Inc.).
To evaluate whether the effect of JIB-04 on DNA repair dynamics described above was cancer-selective, IC50 doses of JIB-04 in colony formation assays of immortalized normal human bronchial epithelial cells HBEC3KT and HBEC30KT were calculated (FIG. 27A). Then these doses of JIB-04 were used to pretreat cells 4 h prior to radiation and survival was measured. […]

H3K4me3 at DSBs = experiment: γH2AX immunoprecipitation, H3K4me3 at DSBs; assay type: cell-based, Human; conditions: JIB-04 4 h, IR 20 Gy
Procedure: For Histone demethylase activity determination 10×10^6 H1299 cells were seeded in P150 plates. Next day cells were preincubated with JIB-04 for 4 h and then irradiated with 20 Gy. Media was removed from cells, washed with PBS and fixed with 3% w/v PFA, 2% w/v sucrose in PBS for 1 min. Then cells were washed, scraped into media, pelleted by centrifugation (at 500 g for 2 min) and washed with Phosphatase inhibitor 1×, 1 μM Wortmannin (WM) and protease inhibitors 1× (Sigma). Cell pellets were re-suspended in 2.5× the packed cell volume (PCV) of Nucleosome Preparation Buffer (NPB, 10 mM HEPES [pH 7.9], 10 mM KCl, 1.0 mM CaCl2, 1.5 mM MgCl2, 0.34 M sucrose, 10% glycerol, 1 mM DTT, 0.1% Triton X-100) containing Phosphatase inhibitor, 1 μM Wortmannin (WM) and protease inhibitors (Sigma) and 100 U ml-1 micrococcal nuclease (MNase) and incubated at […] for 45 min (note: WM is required to block in vitro DNA-PK/ATM activation by MNase-produced DSBs). An equal volume of Nucleosome Solubilization Buffer (NSB=Nucleosome preparation buffer+2% [v/v] NP-40, 2% [v/v] Triton X-100, 600 mM NaCl) was then added. Samples were then vortexed, sonicated briefly and centrifuged at 10,000 rpm for 10 min. […] Protein levels on samples were quantified and equal amounts of protein run on 4-12% SDS acrylamide gels. […] Quantification was done using the using ImageJ software (National Institute of Health, NIH)

`Clc1ccc(N/N=C(\c2ccccc2)c2ccccn2)nc1` [JIB-04] was tested, and the “radiosensitization (clonogenic survival)” value [1] was “did not radiosensitize” and the “H3K4me3 at sites of DNA damage marked by γH2AX” value (H3K4me3 at DSBs) was “increased H3K4me3”.
